# Where a SMILES comes first, the peptide text is derived from it.
# What was measured:
# [1] = target: Trypsin, from human pancreas (Homo sapiens, UniProt P07477); test: Enzymatic assay, trypsin
# [2] = target: T1, Elastase from human neutrophils (Homo sapiens, UniProt P08246); test: Enzymatic assay, elastase; conditions: Elastase IC50
# T1 sequence (P08246 30-267): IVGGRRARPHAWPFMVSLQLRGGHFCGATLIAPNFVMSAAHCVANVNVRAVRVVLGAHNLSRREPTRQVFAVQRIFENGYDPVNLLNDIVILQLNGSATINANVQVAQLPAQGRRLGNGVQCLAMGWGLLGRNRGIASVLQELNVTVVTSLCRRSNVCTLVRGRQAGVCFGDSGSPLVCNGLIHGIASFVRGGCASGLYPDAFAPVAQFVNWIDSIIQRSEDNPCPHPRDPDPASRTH
# [3] = target: T2, CathepsinG, from human neutrophils (Homo sapiens, UniProt P08311); test: Enzymatic assay, cathepsin G; conditions: Cathepsin G IC50
# T2 sequence (P08311 21-244): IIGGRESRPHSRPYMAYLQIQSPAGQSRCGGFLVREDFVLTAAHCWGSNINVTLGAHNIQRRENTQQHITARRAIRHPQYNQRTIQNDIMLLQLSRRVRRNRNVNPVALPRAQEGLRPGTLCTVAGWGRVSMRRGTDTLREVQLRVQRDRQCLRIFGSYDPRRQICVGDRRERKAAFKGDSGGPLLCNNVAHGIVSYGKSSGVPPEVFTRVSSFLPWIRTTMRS
# [4] = target: Chymotrypsin, from human pancreas (Homo sapiens, UniProt P17538); test: Enzymatic assay, chymotrypsin
# Chain of Chymotrypsin, from human pancreas (P17538 19-263): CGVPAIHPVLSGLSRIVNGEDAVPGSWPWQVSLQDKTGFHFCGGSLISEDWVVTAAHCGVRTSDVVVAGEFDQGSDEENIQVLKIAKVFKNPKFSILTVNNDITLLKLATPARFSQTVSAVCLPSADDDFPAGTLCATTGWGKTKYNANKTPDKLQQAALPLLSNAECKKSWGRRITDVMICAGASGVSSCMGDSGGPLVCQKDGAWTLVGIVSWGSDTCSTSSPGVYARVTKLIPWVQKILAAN
# [5] = tested on: Tryptase, from human lung; test: Enzymatic assay, tryptase; conditions: for IC50: read-out: Tryptase IC50
Structure (SMILES),Trypsin at 100 μM % [1] [%],IC50 [2] [nM],IC50 [3] [nM],Chymotrypsin at 100 μM % [4] [%],Tryptase At 100 μM % ([5]; at 100 μM) [%],IC50 [1] [nM],IC50 [5] [nM],IC50 [4] [nM]
"CC[C@@H](C)[C@H]1NC(=O)[C@H](CO)NC(=O)[C@@H]2CSSC[C@H](NC(=O)[C@H](Cc3ccccc3)NC(=O)[C@@H]3CCCN3C1=O)C(=O)N[C@@H]([C@@H](C)O)C(=O)N[C@@H](CCCCN)C(=O)N[C@@H](CO)C(=O)N[C@@H](CC(=O)O)C(=O)N1CCC[C@H]1C(=O)N1CCC[C@H]1C(=O)N[C@@H]([C@@H](C)CC)C(=O)N2 [Ex. 50] (HELM PEPTIDE1{F.C.T.K.S.D.P.P.I.C.S.[dI].P}$PEPTIDE1,PEPTIDE1,2:R3-10:R3|PEPTIDE1,PEPTIDE1,1:R1-13:R2$$$V2.0)",94,> 100000,89,0,–,–,–,–
"CCCC[C@@H]1NC(=O)[C@H](Cc2ccccc2)NC(=O)[C@H]2CCCN2C(=O)[C@H](Cc2ccc(O)cc2)NC(=O)[C@@H]2CSSC[C@H](NC1=O)C(=O)N[C@@H]([C@@H](C)O)C(=O)N[C@@H](C)C(=O)N[C@@H](CO)C(=O)N[C@@H]([C@@H](C)CC)C(=O)N1CCC[C@H]1C(=O)N1CCC[C@H]1C(=O)N[C@@H](CCC(N)=O)C(=O)N2 [compound 167] (HELM PEPTIDE1{[Nle].C.T.A.S.I.P.P.Q.C.Y.[dP].F}$PEPTIDE1,PEPTIDE1,2:R3-10:R3|PEPTIDE1,PEPTIDE1,1:R1-13:R2$$$V2.0)",–,–,–,60.2,0.2,–,–,–
"CC(C)C[C@@H]1NC(=O)[C@H](CO)NC(=O)[C@H](CCCCN)NC(=O)[C@H]([C@@H](C)O)NC(=O)[C@@H]2CSSC[C@H](NC(=O)[C@H](CCCCN)NC(=O)[C@@H]3CCCN3C(=O)[C@@H]3CCCN3C1=O)C(=O)N[C@@H](CCCNC(=N)N)C(=O)N1CCC[C@@H]1C(=O)N1CCC[C@H]1C(=O)N[C@@H](Cc1c[nH]c3ccccc13)C(=O)N2 [Ex. 195] (HELM PEPTIDE1{W.C.T.K.S.L.P.P.K.C.R.[dP].P}$PEPTIDE1,PEPTIDE1,2:R3-10:R3|PEPTIDE1,PEPTIDE1,1:R1-13:R2$$$V2.0)",–,–,4000,–,–,108,12,–
"CC[C@H](C)[C@@H]1NC(=O)[C@@H]2CCCN2C(=O)[C@H]2CCCN2C(=O)[C@H](CCCNC(=N)N)NC(=O)[C@@H]2CSSC[C@H](NC1=O)C(=O)N[C@@H]([C@@H](C)O)C(=O)N[C@@H](CCCCN)C(=O)N[C@@H](CO)C(=O)N[C@@H](Cc1ccc(O)cc1)C(=O)N1CCC[C@H]1C(=O)N1CCC[C@H]1C(=O)N[C@@H]([C@@H](C)CC)C(=O)N2 [Ex. 183] (HELM PEPTIDE1{I.C.T.K.S.Y.P.P.I.C.R.[dP].P}$PEPTIDE1,PEPTIDE1,2:R3-10:R3|PEPTIDE1,PEPTIDE1,1:R1-13:R2$$$V2.0)",–,–,243,–,–,146,25,–
"CC[C@H](C)[C@@H]1NC(=O)[C@@H]2CCCN2C(=O)[C@H]2CCCN2C(=O)[C@H](CCCNC(=N)N)NC(=O)[C@@H]2CSSC[C@H](NC1=O)C(=O)N[C@@H]([C@@H](C)O)C(=O)N[C@@H](CCCCN)C(=O)N[C@@H](CO)C(=O)N[C@@H](CC(C)C)C(=O)N1CCC[C@H]1C(=O)N1CCC[C@H]1C(=O)N[C@@H](Cc1c[nH]cn1)C(=O)N2 [Ex. 187] (HELM PEPTIDE1{I.C.T.K.S.L.P.P.H.C.R.[dP].P}$PEPTIDE1,PEPTIDE1,2:R3-10:R3|PEPTIDE1,PEPTIDE1,1:R1-13:R2$$$V2.0)",–,–,158,–,–,39,< 100,–
"CC(C)C[C@@H]1NC(=O)[C@H](CO)NC(=O)[C@H](CCCCN)NC(=O)[C@H]([C@@H](C)O)NC(=O)[C@@H]2CSSC[C@H](NC(=O)[C@H](CCCCN)NC(=O)[C@@H]3CCCN3C(=O)[C@@H]3CCCN3C1=O)C(=O)N[C@@H](Cc1ccc(O)cc1)C(=O)N1CCC[C@@H]1C(=O)N1CCC[C@H]1C(=O)N[C@@H](CCCNC(=N)N)C(=O)N2 [Ex. 196] (HELM PEPTIDE1{R.C.T.K.S.L.P.P.K.C.Y.[dP].P}$PEPTIDE1,PEPTIDE1,2:R3-10:R3|PEPTIDE1,PEPTIDE1,1:R1-13:R2$$$V2.0)",–,–,2170,–,–,70,52,–
"CC[C@H](C)[C@@H]1NC(=O)[C@@H]2CCCN2C(=O)[C@H]2CCCN2C(=O)[C@H](CCCNC(=N)N)NC(=O)[C@@H]2CSSC[C@H](NC1=O)C(=O)N[C@@H]([C@@H](C)O)C(=O)N[C@@H](CCCCN)C(=O)N[C@@H](CO)C(=O)N[C@@H](CCc1ccccc1)C(=O)N1CCC[C@H]1C(=O)N1CCC[C@H]1C(=O)N[C@@H]([C@@H](C)CC)C(=O)N2 [Ex. 181] (HELM PEPTIDE1{I.C.T.K.S.[O=C([C@H](CCc1ccccc1)N[*:1])[*:2]].P.P.I.C.R.[dP].P}$PEPTIDE1,PEPTIDE1,2:R3-10:R3|PEPTIDE1,PEPTIDE1,1:R1-13:R2$$$V2.0)",–,–,127,–,–,113,40,–
"CCCC[C@@H]1NC(=O)[C@@H]2CCCN2C(=O)[C@@H](Cc2ccccc2)NC(=O)[C@H](Cc2ccc(O)cc2)NC(=O)[C@@H]2CSSC[C@H](NC1=O)C(=O)N[C@@H]([C@@H](C)O)C(=O)N[C@@H](C)C(=O)N[C@@H](CO)C(=O)N[C@@H]([C@@H](C)CC)C(=O)N1CCC[C@H]1C(=O)N1CCC[C@H]1C(=O)N[C@@H](CCC(N)=O)C(=O)N2 [Ex. 116] (HELM PEPTIDE1{A.S.I.P.P.Q.C.Y.[dF].P.[Nle].C.T}$PEPTIDE1,PEPTIDE1,7:R3-12:R3|PEPTIDE1,PEPTIDE1,1:R1-13:R2$$$V2.0)",0,46,–,–,–,–,–,39700
"CC[C@H](C)[C@@H]1NC(=O)[C@@H]2CCCN2C(=O)[C@@H]2CCCN2C(=O)[C@H](CC(=O)O)NC(=O)[C@H](CO)NC(=O)[C@H](CCCCN)NC(=O)[C@H]([C@@H](C)O)NC(=O)[C@@H]2CSSC[C@H](NC1=O)C(=O)N[C@@H](CO)C(=O)N1CCC[C@@H]1C(=O)N1[C@@H](c3ccccc3)CC[C@H]1C(=O)N[C@@H](Cc1ccccc1)C(=O)N2 [Ex. 48] (HELM PEPTIDE1{C.S.[dP].[O=C([C@@H]1CC[C@H](c2ccccc2)N1[*:1])[*:2]].F.C.T.K.S.D.P.P.I}$PEPTIDE1,PEPTIDE1,1:R3-6:R3|PEPTIDE1,PEPTIDE1,1:R1-13:R2$$$V2.0)",93,> 100000,83,3,–,–,–,–
"CC[C@H](C)[C@@H]1NC(=O)[C@@H]2CCCN2C(=O)[C@H]2CCCN2C(=O)[C@H](CCCNC(=N)N)NC(=O)[C@@H]2CSSC[C@H](NC1=O)C(=O)N[C@@H]([C@@H](C)O)C(=O)N[C@@H](CCCCN)C(=O)N[C@@H](CO)C(=O)N[C@@H](CC(C)C)C(=O)N1CCC[C@H]1C(=O)N1CCC[C@H]1C(=O)N[C@@H]([C@@H](C)CC)C(=O)N2 [Ex. 180] (HELM PEPTIDE1{I.C.T.K.S.L.P.P.I.C.R.[dP].P}$PEPTIDE1,PEPTIDE1,2:R3-10:R3|PEPTIDE1,PEPTIDE1,1:R1-13:R2$$$V2.0)",–,–,120,–,–,60,< 100,–
"CC[C@H](C)[C@@H]1NC(=O)[C@@H]2CCCN2C(=O)[C@H]2CCCN2C(=O)[C@H](CCCCN)NC(=O)[C@@H]2CSSC[C@H](NC1=O)C(=O)N[C@@H]([C@@H](C)O)C(=O)N[C@@H](CCCCN)C(=O)N[C@@H](CO)C(=O)N[C@@H](CC(C)C)C(=O)N1CCC[C@H]1C(=O)N1CCC[C@H]1C(=O)N[C@@H](CCCNC(=N)N)C(=O)N2 [Ex. 190] (HELM PEPTIDE1{I.C.T.K.S.L.P.P.R.C.K.[dP].P}$PEPTIDE1,PEPTIDE1,2:R3-10:R3|PEPTIDE1,PEPTIDE1,1:R1-13:R2$$$V2.0)",–,–,1500,–,–,172,< 100,–
"CCCC[C@@H]1NC(=O)[C@@H]2CCCN2C(=O)[C@H]2CCCN2C(=O)[C@H](CCCNC(=N)N)NC(=O)[C@@H]2CSSC[C@H](NC1=O)C(=O)N[C@@H]([C@@H](C)O)C(=O)N[C@@H](CCCCN)C(=O)N[C@@H](CO)C(=O)N[C@@H](CC(C)C)C(=O)N1CCC[C@H]1C(=O)N1CCC[C@H]1C(=O)N[C@@H](CCCCN)C(=O)N2 [Ex. 192] (HELM PEPTIDE1{[Nle].C.T.K.S.L.P.P.K.C.R.[dP].P}$PEPTIDE1,PEPTIDE1,2:R3-10:R3|PEPTIDE1,PEPTIDE1,1:R1-13:R2$$$V2.0)",–,–,650,–,–,72,16,–
"CC[C@H](C)[C@@H]1NC(=O)[C@@H]2CCCN2C(=O)[C@H]2CCCN2C(=O)[C@H](CCCNC(=N)N)NC(=O)[C@@H]2CSSC[C@H](NC1=O)C(=O)N[C@@H]([C@@H](C)O)C(=O)N[C@@H](CCCCN)C(=O)N[C@@H](CO)C(=O)N[C@@H](CC(C)C)C(=O)N1CCC[C@H]1C(=O)N1CCC[C@H]1C(=O)N[C@@H]([C@@H](C)O)C(=O)N2 [Ex. 189] (HELM PEPTIDE1{I.C.T.K.S.L.P.P.T.C.R.[dP].P}$PEPTIDE1,PEPTIDE1,2:R3-10:R3|PEPTIDE1,PEPTIDE1,1:R1-13:R2$$$V2.0)",–,–,164,–,–,39,< 100,–
"CC(C)C[C@@H]1NC(=O)[C@H](CO)NC(=O)[C@H](CCCCN)NC(=O)[C@H]([C@@H](C)O)NC(=O)[C@@H]2CSSC[C@H](NC(=O)[C@H](CCCCN)NC(=O)[C@@H]3CCCN3C(=O)[C@@H]3CCCN3C1=O)C(=O)N[C@@H](CCCNC(=N)N)C(=O)N1CCC[C@@H]1C(=O)N1CCC[C@H]1C(=O)N[C@@H](CC1CCCCC1)C(=O)N2 [Ex. 193] (HELM PEPTIDE1{[Cha].C.T.K.S.L.P.P.K.C.R.[dP].P}$PEPTIDE1,PEPTIDE1,2:R3-10:R3|PEPTIDE1,PEPTIDE1,1:R1-13:R2$$$V2.0)",–,–,431,–,–,35,6,–
